Where two headings read alike, the source gives them in different places. Some results are limits rather than exact numbers.

Five compounds from patent US20160311788A1, “Antifouling Compounds And Use Thereof” (National University of Singapore, priority 2008, published 2016) can be followed below.

The subject of assay [1] is marine bacteria strain S1. Briefly: disc inhibition assay, strain S1. In kind it is cell-based, Rhodovulum iodosum. The conditions noted are these: for zone of inhibition: strain 1, 50 μg of compound per disc. The method, then: (§1) The disc inhibition assay was used. This assay is a conventional method routinely used for screening antibacterial compounds to determine degree of susceptibility to antibacterial compounds. The diameter of the zone of inhibition is proportional to the degree of susceptibility of the bacterial strain. The compounds were tested against 13 strains of marine bacteria isolated from Singapore coastal waters.
(§2) 13 strains of marine bacteria were isolated from fouling communities located in the coastal waters around Singapore. These were characterized in earlier studies and reported in Teo et al. (U.S. patent application Ser. No. 11/265,833) and Choong et al (in prep). In addition, four reference bacterial strains were added tested: Escherichia coli (Strain K12, ATCC 15222), E. coli (strain DH5a), Pseudomonas aeruginosa (strain LMG 12228; ATCC 15692) and P. putida (strain KT2440; ATCC 47054). All the bacteria were also tested against five antibiotics: ampicillin (AMP), tetracycline (TETR), erythromycin (ERY), chloramphenicol (CHL) and streptomycin (STREP).
(§3) Disks comprising the compounds to be tested were prepared as follows. The antibacterial assay, the pure compounds were made up to a concentration of 2 mgml^−1 in DMSO. 25 μl of the stock was pipetted onto each 6 mm sterile disc (Macherey-Nagel #484000) to obtain 50 μg of compound per disc. Equivalent volume of DMSO was used inoculated for the control.
(§4) For all disk inhibition assays, bacterial cultures were grown in marine broth (Pronadisa #1217.00). Sterile swabs dipped into the cultures were used to inoculate Marine Agar plates with a bacterial lawn by smearing the culture over the surface. After inoculating the plates, discs with antibiotics, pharmaceuticals or control blanks were placed on each plate. Each concentration of antibiotic or pharmaceutical was tested with two replicates. After the disks were placed on the agar surface, plates were incubated overnight in the dark at 35° C. After incubation, plates were examined for zones of inhibition or clearing around control and treated disks. The diameter of any zone of clearing or inhibition was measured using Vernier calipers. There were two replicates per treatment, and the average was taken.

Assay [2] has as its system marine bacteria strain S3. The experiment in a line: disc inhibition assay, strain S3. The assay is classed as cell-based, Erythrobacter aquimaris. The following applies: for zone of inhibition at 50 µg/disc: Qipengyuania aquimaris, S3, 24 h. The method, then:
as §1, §2, §3, §4

Assay [3] relates to marine bacteria strain S4. The experiment in a line: disc inhibition assay, strain S4. The assay is classed as cell-based, Bacillus algicola. The following applies: for zone of inhibition at 50 µg/disc: Guptibacillus algicola, S4, 24 h; for zone of inhibition: strain 4, 50 μg of compound per disc. How it is done:
as §1, §2, §3, §4

In assay [4] the test system is marine bacteria strain S9. The experiment in a line: disc inhibition assay, strain S9. The conditions noted are these: for zone of inhibition at 50 µg/disc: Guptibacillus algicola, S9, 24 h; for zone of inhibition: strain 9, 50 μg of compound per disc. The assay is classed as cell-based, Bacillus algicola. The method, then:
as §1, §2, §3, §4

Assay [5] deals with marine bacteria strain S10. The experiment in a line: disc inhibition assay, strain S10. In kind it is cell-based, Halobacillus trueperi. The following applies: for zone of inhibition at 50 µg/disc: Halobacillus trueperi, S10, 24 h; for zone of inhibition: strain 10, 50 μg of compound per disc. The method, then:
as §1, §2, §3, §4

Assay [6] relates to marine bacteria strain S14. The experiment in a line: disc inhibition assay, strain S14. In kind it is cell-based, Vibrio probioticus. The conditions noted are these: strain 14, 50 μg of compound per disc. The method, then:
as §1, §2
(§5) Disks comprising the compounds to be tested were prepared as follows. The antibacterial assay, the pure compounds were made up to a concentration of 2 mgml^−1 in DMSO. […] Equivalent volume of DMSO was used inoculated for the control.
as §4

For assay [7], the system named is marine bacteria strain S16. The experiment in a line: disc inhibition assay, strain S16. In kind it is cell-based, Pseudoalteromonas piscicida. The conditions noted are these: for zone of inhibition: strain 16, 50 μg of compound per disc. The method, then:
as §1, §2, §3, §4

In assay [8] the test system is marine bacteria strain S17. The experiment in a line: disc inhibition assay, strain S17. In kind it is cell-based, Gordonia terrae. The following applies: for zone of inhibition at 50 µg/disc: Gordonia terrae, S17, 24 h; for zone of inhibition: strain 17, 50 μg of compound per disc. How it is done: as §1, §2, §3, §4
In assay [9] the test system is marine bacteria strain S18. Briefly: disc inhibition assay, strain S18. The assay is classed as cell-based, Microbacterium esteraromaticum. The following applies: for zone of inhibition at 50 µg/disc: Microbacterium esteraromaticum, S18, 24 h; for zone of inhibition: strain 18, 50 μg of compound per disc. The method, then:
as §1, §2, §5, §4

In assay [10] the test system is marine bacteria strain S27. Briefly: disc inhibition assay, strain S27. The following applies: strain 27, 50 μg of compound per disc. The assay is classed as cell-based, Tenacibaculum lutimaris. How it is done:
as §1, §2, §3, §4

The subject of assay [11] is marine bacteria strain S28. Briefly: disc inhibition assay, strain S28. The conditions noted are these: for zone of inhibition at 50 µg/disc: Arthrobacter, S28, 24 h; for zone of inhibition: strain 28, 50 μg of compound per disc. In kind it is cell-based, Arthrobacter protophormial. The method, then: as §1, §2, §3, §4
Assay [12] deals with marine bacteria strain S29. The experiment in a line: disc inhibition assay, strain S29. The assay is classed as cell-based, Bacillus hwajinpoensis. The conditions noted are these: for zone of inhibition at 50 µg/disc: Guptibacillus hwajinpoensis, S29, 24 h. The method, then: as §1, §2, §3, §4
The subject of assay [13] is marine bacteria strain S30. The experiment in a line: disc inhibition assay, strain S30. In kind it is cell-based, Bacillus borophilicus. The following applies: for zone of inhibition at 50 µg/disc: Bacillus, S30, 24 h; for zone of inhibition: strain 30, 50 μg of compound per disc. How it is done:
as §1, §2, §3, §4

Setting [14] is: strain 29, 50 μg of compound per disc.
The mark [15] stands for this setting: strain 3, 50 μg of compound per disc.

As usually defined, the zone of inhibition is the size of the clear area around the sample on an inoculated plate. `CC(=O)OC1(c2ccc(Cl)cc2)CCN(CCC(C(=O)N(C)C)(c2ccccc2)c2ccccc2)CC1` [Compound 5.3]: the zone of inhibition entry in assay [1], in [6], in assay [7] and in [10] was “−” in each case. The zone of inhibition at 50 µg/disc lay in the range of 5 to 10 mm in [2]; 2 to 5 mm in [3]; 2 to 5 mm in [4]; 5 to 10 mm in assay [5]; 2 to 5 mm in assay [8]; 2 to 5 mm in assay [9]. Moreover, the zone of inhibition at 50 µg/disc in assay [11], in [12] and in assay [13] was 2 to 5 mm throughout.
For `O=C(C(c1ccccc1)c1ccccc1)N1CCC(O)(c2ccc(Cl)cc2)CC1` [Compound 4.3], the zone of inhibition result in [1], in assay [3], in assay [4], in assay [5], in assay [6] and in assay [7] was “−” throughout. Moreover, the zone of inhibition entry in assay [8], in assay [9], in assay [10], in assay [11], in assay [12] (setting [14]) and in assay [13] was “−” in each case. Also, in assay [2] (strain 3, 50 μg of compound per disc, read-out: zone of inhibition), the zone of inhibition at 50 µg/disc lay within 2 to 5 mm.
Take `CN(C)C(=O)C(CCN1CCCCC1)(c1ccccc1)c1ccccc1` [Compound 9.1, N, N-Dimethyl-2,2-diphenyl-4-(piperidin-1-yl)butanamide]: the zone of inhibition entry in assay [1], in assay [2] (setting [15]), in [3], in assay [5], in assay [6] and in [7] was “−” throughout. Also, the zone of inhibition result in assay [8], in assay [10], in assay [11], in assay [12] (setting [14]) and in assay [13] was “−” each time. The zone of inhibition at 50 µg/disc in assay [4] and in assay [9] was 2 to 5 mm in each case.
As for `COC1(c2ccc(Cl)cc2)CC[N+](C)(CCC(C(=O)N(C)C)(c2ccccc2)c2ccccc2)CC1` (stereo not drawn) [Compound 5.2, N,O-dimethyl Loperamide], the zone of inhibition at 50 µg/disc in assay [1] (Rhodovulum iodosum, S1) lay within 2 to 5 mm; in assay [2], 5 to 10 mm; in [3], 5 to 10 mm; in assay [4], 5 to 10 mm; in [5] it was 5 to 10 mm; in assay [7] (Pseudoalteromonas piscicida, S16, 24 h) it was 2 to 5 mm. For the same compound, the zone of inhibition at 50 µg/disc in [8] was 2 to 5 mm; in [9] it was more than 10 mm; in assay [11], 5 to 10 mm; in assay [12], 5 to 10 mm; in assay [13], 5 to 10 mm. Further, in assay [1] (strain S1, text), the “antibacterial activity in words” value was “had activity”. The zone of inhibition result in [6] and in assay [10] was “−” throughout.
As for `O=C(C(CCCCC(O)CO)c1ccccc1)N1CCCCC1` (stereo not drawn) [Compound 12.5], the zone of inhibition result in [1], in assay [2] (setting [15]), in assay [3], in assay [4], in [5] and in assay [6] was “−” each time. Also, the zone of inhibition entry in [7], in assay [8], in assay [9], in assay [10], in assay [11] and in assay [13] was “−” each time. The zone of inhibition at 50 µg/disc in assay [12] (strain 29, 50 μg of compound per disc, read-out: zone of inhibition) is 2 to 5 mm.
